# Test results from PubChem BioAssay AID328 (DTP/NCI, 2004).
# Toxic doses and inconclusive results are not listed.
# Test system: BDF1 mice, P388 leukemia ip, median survival T/C
# Experiment: NCI In Vivo Anticancer Drug Screen. Data for tumor model P388 Leukemia (intraperitoneal) in B6D2F1 (BDF1) mice
# Settings: endpoint: median survival time, higher = longer survival
# Outline: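 Transplantable tumour in mice; compound vs vehicle dosing; survival scored; ratio of treated to control reported.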
smiles,measurement,setting,value
C=C(C)C12CC(COC(=O)c3ccccc3)C34OC5(OC1C3C1OC1(CO)C(O)C1(O)C(OC(=O)c3ccccc3)C(C)C(C(C)CCCCCCC5O)C14)O2 (stereo unspecified),T/C,"dose: 0.25 mg/kg/injection, schedule: Q01DX009 (ip), vehicle: saline",113 % of control
same,T/C,"dose: 0.5 mg/kg/injection, schedule: Q01DX009 (ip), vehicle: saline",122 % of control
same,T/C,"dose: 0.75 mg/kg/injection, schedule: Q01DX009 (ip), vehicle: saline",150 % of control
same,T/C,"dose: 0.5 micrograms/kg/injection, schedule: Q01DX009 (ip), vehicle: saline + alcohol",111 % of control
same,T/C,"dose: 0.8 micrograms/kg/injection, schedule: Q01DX009 (ip), vehicle: gum acacia",100 % of control
same,T/C,"dose: 0.8 micrograms/kg/injection, schedule: Q01DX009 (ip), vehicle: saline + alcohol",124 % of control
same,T/C,"dose: 0.8 micrograms/kg/injection, schedule: Q01DX009 (ip), vehicle: saline with Tween-80",162 % of control
same,T/C,"dose: 1.0 micrograms/kg/injection, schedule: Q01DX009 (ip), vehicle: saline + alcohol",108 % of control
same,T/C,"dose: 1.6 micrograms/kg/injection, schedule: Q01DX009 (ip), vehicle: saline + alcohol",238 % of control
same,T/C,"dose: 1.6 micrograms/kg/injection, schedule: Q01DX009 (ip), vehicle: saline with Tween-80",175 % of control
same,T/C,"dose: 2.0 micrograms/kg/injection, schedule: Q01DX009 (ip), vehicle: saline + alcohol",104 % of control
same,T/C,"dose: 3.1 micrograms/kg/injection, schedule: Q01DX009 (ip), vehicle: saline + alcohol",153 % of control
same,T/C,"dose: 3.1 micrograms/kg/injection, schedule: Q01DX009 (ip), vehicle: saline with Tween-80",175 % of control
same,T/C,"dose: 6.3 micrograms/kg/injection, schedule: Q01DX009 (ip), vehicle: gum acacia",120 % of control
same,T/C,"dose: 6.3 micrograms/kg/injection, schedule: Q01DX009 (ip), vehicle: saline + alcohol",175 % of control
same,T/C,"dose: 12.5 micrograms/kg/injection, schedule: Q01DX009 (ip), vehicle: gum acacia",118 % of control
same,T/C,"dose: 12.5 micrograms/kg/injection, schedule: Q01DX009 (ip), vehicle: saline + alcohol",179 % of control
same,T/C,"dose: 25.0 micrograms/kg/injection, schedule: Q01DX009 (ip), vehicle: gum acacia",120 % of control
same,T/C,"dose: 50.0 micrograms/kg/injection, schedule: Q01DX009 (ip), vehicle: gum acacia",124 % of control
CCCCCCCCCCCCCCC(F)C(=O)OC (stereo unspecified),T/C,"dose: 25.0 mg/kg/injection, schedule: Q01DX009 (sc), vehicle: olive oil, sesame oil, peanut oil",95 % of control
same,T/C,"dose: 50.0 mg/kg/injection, schedule: Q01DX009 (sc), vehicle: olive oil, sesame oil, peanut oil",86 % of control
same,T/C,"dose: 50.0 mg/kg/injection, schedule: Q04DX003 (sc), vehicle: olive oil, sesame oil, peanut oil",91 % of control
same,T/C,"dose: 100.0 mg/kg/injection, schedule: Q01DX009 (sc), vehicle: olive oil, sesame oil, peanut oil",100 % of control
same,T/C,"dose: 100.0 mg/kg/injection, schedule: Q04DX003 (sc), vehicle: olive oil, sesame oil, peanut oil",91 % of control
C=C(C)c1cc2c(cc1O)OCC2C (stereo unspecified),T/C,"dose: 100.0 mg/kg/injection, schedule: Q04DX003 (ip), vehicle: Klucel (hydroxypropylcellulose) (HPC)",92 % of control
same,T/C,"dose: 300.0 mg/kg/injection, schedule: Q01DX009 (ip), vehicle: Klucel (hydroxypropylcellulose) (HPC)",90 % of control
same,T/C,"dose: 400.0 mg/kg/injection, schedule: Q04DX003 (ip), vehicle: Klucel (hydroxypropylcellulose) (HPC)",92 % of control
O=C1C=CC(=O)c2c(O)c(CBr)c(CBr)c(O)c21,T/C,"dose: 3.12 mg/kg/injection, schedule: Q01DX009 (ip), vehicle: water",96 % of control
same,T/C,"dose: 6.25 mg/kg/injection, schedule: Q01DX009 (ip), vehicle: water",118 % of control
same,T/C,"dose: 6.25 mg/kg/injection, schedule: Q04DX003 (ip), vehicle: water",105 % of control
same,T/C,"dose: 12.5 mg/kg/injection, schedule: Q01DX009 (ip), vehicle: water",108 % of control
same,T/C,"dose: 12.5 mg/kg/injection, schedule: Q04DX003 (ip), vehicle: water",105 % of control
same,T/C,"dose: 25.0 mg/kg/injection, schedule: Q01DX009 (ip), vehicle: water",118 % of control
same,T/C,"dose: 25.0 mg/kg/injection, schedule: Q04DX003 (ip), vehicle: water",100 % of control
same,T/C,"dose: 50.0 mg/kg/injection, schedule: Q01DX009 (ip), vehicle: water",112 % of control
same,T/C,"dose: 50.0 mg/kg/injection, schedule: Q04DX003 (ip), vehicle: water",107 % of control
same,T/C,"dose: 100.0 mg/kg/injection, schedule: Q01DX009 (ip), vehicle: water",105 % of control
O=C1NC(=S)S/C1=C\c1ccncc1,T/C,"dose: 50.0 mg/kg/injection, schedule: Q01DX009 (ip), vehicle: saline with Tween-80",113 % of control
same,T/C,"dose: 100.0 mg/kg/injection, schedule: Q01DX009 (ip), vehicle: saline with Tween-80",106 % of control
same,T/C,"dose: 200.0 mg/kg/injection, schedule: Q01DX009 (ip), vehicle: saline with Tween-80",106 % of control
same,T/C,"dose: 400.0 mg/kg/injection, schedule: Q01DX009 (ip), vehicle: saline with Tween-80",106 % of control
